From patent US20250121013A1, “USE OF BACILLUS AMYLOLIQUEFACIENS FOR PREVENTING AND TREATING PARKINSON'S DISEASE” (Artugen Therapeutics Ltd., priority 2021, published 2025)
In brackets after ≈: the same amount, converted by molar mass.

Legend:
ART24 [1] = assay: Antibiotic susceptibility of ART24, MIC, VetMIC panels (Table 2); assay type: cell-based, Bacillus amyloliquefaciens; details: Bacillus amyloliquefaciens; 24 hr at 37° C.; average results from N = 6; read-out: ART24 MIC
Description: The minimum inhibitory concentration (MIC) of the listed antimicrobials is expressed as μg/mL. […] The wells of the prefabricated 96-well plates were filled with 100 μL of the final suspension. The plates were sealed with an […], Sigma Aldrich) sealing film (to facilitate growth of the aerobic Bacillus. The plates were then incubated for 24 hr at 37° C. The results are recorded after 24 hours as the lowest concentration of the antibiotic to inhibit visible growth. The prefabricated panels […], Uppsala, Sweden) comprising the antibiotics ampicillin, vancomycin, gentamicin, kanamycin, streptomycin, erythromycin, clindamycin, tetracycline, chloramphenicol, neomycin, penicillin, quinupristin-dalfopristin, linezolid, trimethoprim, ciprofloxacin and rifampicin were used.

ART24 [2] = assay: Antibiotic susceptibility of ART24 lots and cell banks, MIC following EFSA testing recommendations (Table 3); assay type: cell-based, Bacillus amyloliquefaciens; details: for MIC: Bacillus amyloliquefaciens
Description: The minimum inhibitory concentration (MIC) of the listed antimicrobials is expressed as μg/mL. Additional studies following EFSA testing recommendations were performed on lyophilized ART24 lots CO-33-10A2 and CO-33-12A2 and Research and Master Cell Banks CO-33-ART24 BHI and CO-33-ART24 SYD, and those results are shown in Table 3.

[3] = ART24 source: cell bank CO-33 ART 24 BHI
[4] = ART24 source: cell bank CO-33 ART 024 SYD
[5] = ART24 source: lyophilized lot CO-33-10A2
[6] = ART24 source: lyophilized lot CO-33-12A2
[7] = ART24 source: cell bank CO-33 ART 24 BHI, read-out: MIC, CO-33 ART 24 BHI
[8] = ART24 source: cell bank CO-33 ART 024 SYD, read-out: MIC, CO-33 ART 024 SYD
[9] = ART24 source: lyophilized lot CO-33-10A2, read-out: MIC, CO-33-10A2
[10] = ART24 source: lyophilized lot CO-33-12A2, read-out: MIC, CO-33-12A2

Structure (SMILES)	MIC (ART24 [1])	MIC interpretation, CO-33 ART 24 BHI (ART24 [2]; [3])	MIC interpretation, CO-33 ART 024 SYD (ART24 [2]; [4])	MIC interpretation, CO-33-10A2 (ART24 [2]; [5])	MIC interpretation, CO-33-12A2 (ART24 [2]; [6])	MIC (ART24 [2]; [7])	MIC (ART24 [2]; [8])	MIC (ART24 [2]; [9])	MIC (ART24 [2]; [10])	MIC (ART24 [2]; aerobic, ART24 source CO-33-10A2, read-out: MIC, CO-33-10A2 (aerobic))	MIC (ART24 [2]; aerobic, ART24 source CO-33-12A2, read-out: MIC, CO-33-12A2 (aerobic))	MIC (ART24 [2]; aerobic, ART24 source CO-33 ART 24 BHI, read-out: MIC, CO-33 ART 24 BHI (aerobic))	MIC (ART24 [2]; aerobic, ART24 source CO-33 ART 024 SYD, read-out: MIC, CO-33 ART 024 SYD (aerobic))	MIC (ART24 [2]; anaerobic, ART24 source CO-33-10A2, read-out: MIC, CO-33-10A2 (anaerobic))	MIC (ART24 [2]; anaerobic, ART24 source CO-33-12A2, read-out: MIC, CO-33-12A2 (anaerobic))	MIC (ART24 [2]; anaerobic, ART24 source CO-33 ART 24 BHI, read-out: MIC, CO-33 ART 24 BHI (anaerobic))	MIC (ART24 [2]; anaerobic, ART24 source CO-33 ART 024 SYD, read-out: MIC, CO-33 ART 024 SYD (anaerobic))
CC1(C)S[C@@H]2[C@H](NC(=O)[C@H](N)c3ccccc3)C(=O)N2[C@H]1C(=O)O [Ampicillin]	0.25 µg/mL (≈ 0.715 µM)	S	S	S	S	≤ 0.03 µg/mL	≤ 0.03 µg/mL	≤ 0.03 µg/mL	≤ 0.03 µg/mL	–	–	–	–	–	–	–	–
O=C(N[C@H](CO)[C@H](O)c1ccc([N+](=O)[O-])cc1)C(Cl)Cl [Chloramphenicol]	4 µg/mL (≈ 12.4 µM)	S	S	S	S	2 µg/mL (≈ 6.19 µM)	2 µg/mL (≈ 6.19 µM)	2 µg/mL (≈ 6.19 µM)	2 µg/mL (≈ 6.19 µM)	–	–	–	–	–	–	–	–
O=C(O)c1cn(C2CC2)c2cc(N3CCNCC3)c(F)cc2c1=O [Ciprofloxacin]	≤ 0.25 µg/mL	S	S	S	S	≤ 0.03 µg/mL	≤ 0.03 µg/mL	≤ 0.03 µg/mL	≤ 0.03 µg/mL	–	–	–	–	–	–	–	–
CCC[C@@H]1C[C@@H](C(=O)N[C@@H]([C@H]2O[C@H](SC)[C@H](O)[C@@H](O)[C@H]2O)[C@H](C)Cl)N(C)C1 [Clindamycin]	0.5 to 1 µg/mL (≈ 1.18 to 2.35 µM)	S	S	S	S	0.25 µg/mL (≈ 0.588 µM)	0.25 µg/mL (≈ 0.588 µM)	0.12 µg/mL (≈ 0.282 µM)	0.25 µg/mL (≈ 0.588 µM)	–	–	–	–	–	–	–	–
CC[C@H]1OC(=O)[C@H](C)[C@@H](O[C@H]2C[C@@](C)(OC)[C@@H](O)[C@H](C)O2)[C@H](C)[C@@H](O[C@@H]2O[C@H](C)C[C@H](N(C)C)[C@H]2O)[C@](C)(O)C[C@@H](C)C(=O)[C@H](C)[C@@H](O)[C@]1(C)O [Erythromycin]	0.12 µg/mL (≈ 0.164 µM)	S	S	S	S	0.12 µg/mL (≈ 0.164 µM)	0.12 µg/mL (≈ 0.164 µM)	0.06 µg/mL (≈ 0.0818 µM)	0.06 µg/mL (≈ 0.0818 µM)	–	–	–	–	–	–	–	–
CCc1c(Cl)c(O)c(Cl)c(O)c1C(=O)O[C@H]1[C@H](O)[C@H](OC)[C@H](OC/C2=C\C=C\C[C@H](O)/C(C)=C/[C@H](CC)[C@@H](O[C@@H]3OC(C)(C)[C@@H](OC(=O)C(C)C)[C@H](O)[C@@H]3O)/C(C)=C/C(C)=C/C[C@@H]([C@@H](C)O)OC2=O)O[C@@H]1C [Fidaxomicin]	–	–	–	–	–	4 µg/mL (≈ 3.78 µM)	4 µg/mL (≈ 3.78 µM)	2 µg/mL (≈ 1.89 µM)	4 µg/mL (≈ 3.78 µM)	–	–	–	–	–	–	–	–
NC[C@H]1O[C@H](O[C@H]2[C@H](O)[C@@H](O[C@H]3O[C@H](CO)[C@@H](O)[C@H](N)[C@H]3O)[C@H](N)C[C@@H]2N)[C@H](O)[C@@H](O)[C@@H]1O [Kanamycin]	≤ 2 µg/mL	S	S	S	S	≤ 0.5 µg/mL	≤ 0.5 µg/mL	≤ 0.5 µg/mL	≤ 0.5 µg/mL	–	–	–	–	–	–	–	–
CC(=O)NC[C@H]1CN(c2ccc(N3CCOCC3)c(F)c2)C(=O)O1 [Linezolid]	0.5 µg/mL (≈ 1.48 µM)	–	–	–	–	0.5 µg/mL (≈ 1.48 µM)	0.5 µg/mL (≈ 1.48 µM)	0.25 µg/mL (≈ 0.741 µM)	0.5 µg/mL (≈ 1.48 µM)	–	–	–	–	–	–	–	–
Cc1ncc([N+](=O)[O-])n1CCO [Metronidazole]	–	–	–	–	–	–	–	–	–	> 64 µg/mL	> 64 µg/mL	> 64 µg/mL	> 64 µg/mL	64 µg/mL (≈ 374 µM)	64 µg/mL (≈ 374 µM)	64 µg/mL (≈ 374 µM)	64 µg/mL (≈ 374 µM)
